From article PMC10975434 (Pharmaceutics, 2024)
Residue numbers refer to the chain shown, from its start. “And” between values parts separate entries of the source, which are not always exact repeats. Equal entries are not always repeated. Where two headings read alike, the source gives them in different places.

Experiments:
UGT2B7 [1] = biological target: T1, UGT2B7 (Homo sapiens, UniProt P16662); assay: Inhibition screening of morphine glucuronidation in pooled human liver microsomes (HLM); conditions: 100 µM cannabinoid
T1 sequence (P16662 24-529): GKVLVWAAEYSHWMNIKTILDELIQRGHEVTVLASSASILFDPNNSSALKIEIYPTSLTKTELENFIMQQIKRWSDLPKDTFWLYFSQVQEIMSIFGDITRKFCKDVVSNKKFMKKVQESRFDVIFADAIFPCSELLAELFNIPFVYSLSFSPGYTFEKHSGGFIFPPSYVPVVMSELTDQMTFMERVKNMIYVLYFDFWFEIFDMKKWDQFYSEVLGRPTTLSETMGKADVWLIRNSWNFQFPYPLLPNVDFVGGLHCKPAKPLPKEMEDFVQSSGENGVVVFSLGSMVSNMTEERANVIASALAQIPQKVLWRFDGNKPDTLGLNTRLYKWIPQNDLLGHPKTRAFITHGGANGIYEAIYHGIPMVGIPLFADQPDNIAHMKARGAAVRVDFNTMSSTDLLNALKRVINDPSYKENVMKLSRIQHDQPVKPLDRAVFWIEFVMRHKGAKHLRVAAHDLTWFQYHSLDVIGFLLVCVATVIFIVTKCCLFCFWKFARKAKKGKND

UGT2B7 [2] = biological target: T2, UGT2B7 (Homo sapiens, UniProt P16662, Y268H); assay: Inhibition screening of morphine glucuronidation in rUGT2B7-overexpressing HEK293 cell microsomes; conditions: rUGT-overexpressing microsomes and HLM
T2 sequence (P16662 24-529 Y268H): T1 sequence (P16662 24-529) with Y245H

UGT2B7 [3] = biological target: T1, UGT2B7
[4] = cited from earlier work
UGT2B7 [5] = biological target: T1, UGT2B7; assay: IC50 determination and calculated Ki, morphine glucuronidation in HLM
UGT2B7 [6] = biological target: T2, UGT2B7
[7] = Estimated unbound maximum hepatic inlet concentration used for the static model
Method: (8) [I]h=fu,p×Cmax+Fa ×Fg×Ka×Dose/Qh ×Rb
For the static mechanistic modeling, hepatic blood flow (Qh) and enterocyte blood flow (Qen) were set to 1500 mL/min and 300 mL/min, respectively, and the blood-to-plasma concentration ratio (RB) was set to 0.4 [55].
C௠௔௫ ,௛௘௣௔௧௜௖ ௜௡௟௘௧ ,௨ ൌ f௨,௣ ൈ ቀC௠௔௫ ൅ ிೌ ൈ ி೒ ൈ ௄ೌ ൈ஽௢௦௘ொ೓ ൈ ோ್ቁ, where fu,p (unbound fraction in plasma) wa s set

UGT2B7 [8] = biological target: T2, UGT2B7; assay: IC50 determination, morphine glucuronidation in rUGT2B7-overexpressing HEK293 cell microsomes
UGT2B7 [9] = tested on: UGT2B7; set-up: method as in PMID 9715839; conditions: coadministration of zidovudine (AZT) and methadone; cited from earlier work
UGT2B7 [10] = biological target: T2, UGT2B7; assay: in vitro
[11] = cited from earlier work; for Cmax,u: after consumption; for ka (first-order absorption rate constant): ref Cox et al., 2019 [45]
UGT2B7 [12] = biological target: T1, UGT2B7; assay: in vitro; conditions: human liver microsomes, probe morphine […] (morphine-6-glucuronide formation)
[13] = read-out: Calculated Ki, Morphine-3-Glucuronide, Ki=IC50/2 assuming competitive inhibition
[14] = read-out: Calculated Ki, Morphine-6-Glucuronide, Ki=IC50/2 assuming competitive inhibition
[15] = read-out: Calculated Ki,u, Morphine-3-Glucuronide, Ki corrected with fu,inc
[16] = read-out: Calculated Ki,u, Morphine-6-Glucuronide, Ki corrected with fu,inc
[17] = read-out: IC50,u, Morphine-3-Glucuronide formation, corrected for non-specific binding with fu,inc (11-OH-THC fu,inc as surrogate for 11-COOH-THC and 7-OH-CBD)
[18] = read-out: IC50,u, Morphine-6-Glucuronide formation, corrected for non-specific binding with fu,inc (11-OH-THC fu,inc as surrogate for 11-COOH-THC and 7-OH-CBD)
[19] = read-out: Cmax,hepatic inlet,u, THC dose 20 mg, Oral, estimated from Cmax of Bansal et al., 2022 [56]
[20] = read-out: Cmax,hepatic inlet,u, THC dose 25 mg, Inhalation, estimated from Cmax of Bansal et al., 2022 [56]
[21] = read-out: Cmax,hepatic inlet,u, THC dose 70 mg, Inhalation, estimated from Cmax of Bansal et al., 2022 [56]
[22] = read-out: Cmax,hepatic inlet,u, THC dose 100 mg, Inhalation, estimated from Cmax of Bansal et al., 2022 [56]
[23] = read-out: Cmax,hepatic inlet,u, THC dose 130 mg, Oral, estimated from Cmax of Bansal et al., 2022 [56]
[24] = read-out: Cmax,hepatic inlet,u, THC dose 160 mg, Oral, estimated from Cmax of Bansal et al., 2022 [56]
[25] = microsomes of HEK293 cells overexpressing recombinant UGT2B7, probe morphine […] (morphine-3-glucuronide formation)
[26] = microsomes of HEK293 cells overexpressing recombinant UGT2B7, probe morphine […] (morphine-6-glucuronide formation)

Compound	inhibition of M3G and M6G formation in HLM (in words) (UGT2B7 [1])	inhibition of UGT2B7-mediated morphine metabolism (overall, in words) (UGT2B7 [2])	IC50 (UGT2B7 [3])	Ki (UGT2B7 [5]; [13]) [µM]	Ki (UGT2B7 [5]; [14]) [µM]	Ki (UGT2B7 [5]; [15]) [µM]	Ki (UGT2B7 [5]; [16]) [µM]	IC50 (UGT2B7 [5]; [17]) [µM]	IC50 (UGT2B7 [5]; [18]) [µM]	IC50 (UGT2B7 [6])	Cmax [7, 19] [nM]	Cmax [7, 20] [nM]	Cmax [7, 21] [nM]	Cmax [7, 22] [nM]	Cmax [7, 23] [nM]	Cmax [7, 24] [nM]	IC50 (UGT2B7 [8]; [17]) [µM]	IC50 (UGT2B7 [8]; [18]) [µM]	also measured
C=C(C)[C@@H]1CCC(C(=O)O)=C[C@H]1c1c(O)cc(CCCCC)cc1O [7-COOH-CBD, 7-carboxy-cannabidiol]	weak to moderate inhibition																		
11-hydroxy-Δ^9-tetrahydrocannabinol [11-OH-THC]	significant inhibition	strong inhibition	18 µM and 13 µM	8.82 ± 8.42	6.61 ± 5.02	0.82 ± 0.79	0.62 ± 0.47	1.7 ± 1.6	1.2 ± 0.95	12 ± 3.5 µM	20	10	30	50	100	120	0.96 ± 0.27	0.96 ± 0.28	unbound fraction (fu,inc) ([4]; HLM): 0.094; unbound fraction (fu,inc) ([4]; rUGT-overexpressing microsomes): 0.078
CCCCCc1cc(O)c2c(c1)OC(C)(C)[C@@H]1CCC(C(=O)O)=C[C@@H]21 [11-COOH-THC, 11-nor-9-carboxy-Δ^9-tetrahydrocannabinol]	weak to moderate inhibition	more moderate inhibition	184 µM and 104 µM	91.6 ± 18.5	52.1 ± 8.16	8.61 ± 1.74	4.89 ± 0.77	17 ± 3.5	9.8 ± 1.5	47 µM and 55 µM	190	70	180	260	1220	1500	3.7 ± 1.2	4.3 ± 1.2	
Cc1cn([C@H]2C[C@H](N=[N+]=[N-])[C@@H](CO)O2)c(=O)[nH]c1=O [zidovudine]																			increase in zidovudine exposure (UGT2B7 [9]): 1.4 fold
C=C(C)[C@@H]1CCC(C)=C[C@H]1c1c(O)cc(CCCCC)cc1O [CBD, cannabidiol, reference compound]	significant inhibition	strong inhibition																	Ki (UGT2B7 [5]; human, human liver microsomes, probe morphine […] (morphine-3-glucuronide formation), Calculated Ki, Morphine-3-Glucuronide, Ki=IC50/2 assuming competitive inhibition): 4.11 ± 2.24 µM; IC50 (UGT2B7 [5]; human, human liver microsomes, probe morphine […] (morphine-3-glucuronide formation), IC50,u, Morphine-3-Glucuronide formation, corrected for non-specific binding with fu,inc (11-OH-THC fu,inc as surrogate for 11-COOH-THC and 7-OH-CBD)): 0.42 ± 0.23 µM; Ki (UGT2B7 [5]; human, human liver microsomes, probe morphine […] (morphine-6-glucuronide formation), Calculated Ki, Morphine-6-Glucuronide, Ki=IC50/2 assuming competitive inhibition): 3.16 ± 1.32 µM; Ki (UGT2B7 [5]; human, human liver microsomes, probe morphine […] (morphine-6-glucuronide formation), Calculated Ki,u, Morphine-6-Glucuronide, Ki corrected with fu,inc): 0.16 ± 0.07 µM; IC50 (UGT2B7 [5]; human, human liver microsomes, probe morphine […] (morphine-6-glucuronide formation), IC50,u, Morphine-6-Glucuronide formation, corrected for non-specific binding with fu,inc (11-OH-THC fu,inc as surrogate for 11-COOH-THC and 7-OH-CBD)): 0.32 ± 0.13 µM; inhibition at 100 µM (UGT2B7 [10]; [25]): 99%; inhibition at 100 µM (UGT2B7 [10]; [26]): 98%; Cmax,u [11]: 130 nM; ka (first-order absorption rate constant) ([11]; value set for the static model): 0.02; IC50 (UGT2B7 [12]): 6.3 ± 2.6 µM; Cmax ([7]; human, hepatic inlet (unbound), inhaled or intranasal, 19 mg): 350 nM; Cmax ([7]; human, hepatic inlet (unbound), po, 70 mg): 90 nM; Cmax ([7]; human, hepatic inlet (unbound), po, 700 mg): 890 nM; Cmax ([7]; human, hepatic inlet (unbound), po, 2000 mg): 2540 nM
CCCCCc1cc(O)c2c(c1)OC(C)(C)[C@@H]1CCC(C)=C[C@@H]21 [THC, Δ^9-tetrahydrocannabinol, reference compound]	significant inhibition	strong inhibition	24 µM and 15 µM	12.2 ± 2.77	7.69 ± 1.63		0.37 ± 0.08	1.2 ± 0.27	0.74 ± 0.16		30	250	690	990	200	240	0.85 ± 0.34	0.34 ± 0.07	unbound fraction (fu,inc) ([4]; HLM): 0.048; Cmax,u [11]: 20 nM; ka (first-order absorption rate constant) ([11]; value set for the static model): 0.02; BP (blood to plasma ratio) ([11]; value set for the static model, ref Schwilke et al., 2009 [55]): 0.4
C=C(C)[C@@H]1CCC(CO)=C[C@H]1c1c(O)cc(CCCCC)cc1O [7-OH-CBD, 7-hydroxy-cannabidiol]	significant inhibition	strong inhibition		8.59 ± 3.05	3.99 ± 2.54	0.81 ± 0.29	0.38 ± 0.12	1.6 ± 0.57	0.75 ± 0.24	38 µM and 39 µM							3 ± 2.1	3 ± 0.7	Cmax ([7]; read-out: Cmax,hepatic inlet,u, CBD dose 70 mg, Oral, estimated from Cmax of Bansal et al., 2022 [56]): 30 nM; Cmax ([7]; read-out: Cmax,hepatic inlet,u, CBD dose 700 mg, Oral, estimated from Cmax of Bansal et al., 2022 [56]): 340 nM; Cmax ([7]; read-out: Cmax,hepatic inlet,u, CBD dose 2000 mg, Oral, estimated from Cmax of Bansal et al., 2022 [56]): 980 nM
CCCCCc1cc(O)c2c(c1)OC(C)(C)c1ccc(C)cc1-2 [CBN, cannabinol]	did not exhibit appreciable inhibition	no significant inhibitory activity																	inhibition at 100 µM (UGT2B7 [10]; [25]): 10%; inhibition at 100 µM (UGT2B7 [10]; [26]): 33%
